The target in data set [1] is T1, SIRT6 (Homo sapiens, UniProt Q8N6T7). Description: HPLC deacetylation assay, single concentration […]. The format is biochemical. Particulars: read-out: % inhibition at 100 μM.
Target sequence in this assay (Q8N6T7 whole entry): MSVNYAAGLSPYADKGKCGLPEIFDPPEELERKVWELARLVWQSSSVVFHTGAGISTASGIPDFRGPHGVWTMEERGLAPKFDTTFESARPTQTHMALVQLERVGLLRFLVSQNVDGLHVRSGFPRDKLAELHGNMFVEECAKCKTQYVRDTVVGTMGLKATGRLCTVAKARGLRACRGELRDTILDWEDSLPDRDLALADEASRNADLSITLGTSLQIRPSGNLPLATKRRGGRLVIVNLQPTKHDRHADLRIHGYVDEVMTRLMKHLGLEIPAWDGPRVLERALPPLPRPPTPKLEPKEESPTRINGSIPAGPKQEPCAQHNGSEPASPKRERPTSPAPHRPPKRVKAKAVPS
Another data set addresses T2, SIRT2 (Homo sapiens, UniProt Q8IXJ6).
T2 sequence (Q8IXJ6 2-389): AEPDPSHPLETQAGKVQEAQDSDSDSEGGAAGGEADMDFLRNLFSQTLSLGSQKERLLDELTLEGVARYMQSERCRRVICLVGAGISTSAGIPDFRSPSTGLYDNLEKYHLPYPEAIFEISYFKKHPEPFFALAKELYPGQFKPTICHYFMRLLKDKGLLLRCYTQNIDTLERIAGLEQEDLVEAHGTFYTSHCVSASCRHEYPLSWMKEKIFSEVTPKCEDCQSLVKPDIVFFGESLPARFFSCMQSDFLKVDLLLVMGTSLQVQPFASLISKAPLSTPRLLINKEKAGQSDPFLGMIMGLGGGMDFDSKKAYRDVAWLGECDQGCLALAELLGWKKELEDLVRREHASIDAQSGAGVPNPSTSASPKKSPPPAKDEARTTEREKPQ
Description: fluorogenic deacetylation assay (BioMol KI179 substrate), single concentration […]. The format is biochemical.

The target of data set [2] is T1, SIRT6. Description: HPLC deacetylation assay with H3K9Ac peptide; dose response and steady-state kinetics (activation). Type of data set: biochemical.
Target sequence in this assay (Q8N6T7 whole entry): as the sequence (Q8N6T7 whole entry) above
Data set [3] has as its system T3, NC(=O)c1ccc[n+]([C@@H]2O[C@H](COP(=O)([O-])OP(=O)(O)OC[C@H]3O[C@@H](n4cnc5c(N)ncnc54)[C@H](O)[C@@H]3O)[C@@H](O)[C@H]2O)c1.
T3 construct: GST-tagged recombinant SIRT6
Kind of data set: steady-state Michaelis-Menten kinetics by HPLC (Km, DMSO control). The format is biochemical, Homo sapiens.

Data set [4] concerns the target T1, SIRT6. Kind of data set: fluorogenic demyristoylase assay (BPS Bioscience), myristoyl peptide substrate. Type of data set: biochemical.
Target sequence in this assay (Q8N6T7 2-355): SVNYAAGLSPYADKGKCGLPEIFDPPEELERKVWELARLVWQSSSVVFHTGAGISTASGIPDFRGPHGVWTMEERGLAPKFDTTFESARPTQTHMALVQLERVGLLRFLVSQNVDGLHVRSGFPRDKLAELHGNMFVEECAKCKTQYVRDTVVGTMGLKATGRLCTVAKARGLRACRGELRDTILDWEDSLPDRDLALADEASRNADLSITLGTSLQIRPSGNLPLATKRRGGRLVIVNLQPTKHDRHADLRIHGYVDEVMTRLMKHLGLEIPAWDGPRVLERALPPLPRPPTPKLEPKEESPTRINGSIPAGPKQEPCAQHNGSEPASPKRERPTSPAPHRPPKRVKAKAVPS

Four molecules from PMC12036750, “Screening of SIRT6 inhibitors and activators: A novel activator has an impact on breast cancer cells” (Biomedicine & pharmacotherapy = Biomedecine & …, 2021) can be followed below.

In the case of `O=c1c(O)c(-c2ccc(O)c(O)c2)oc2cc(O)cc(O)c12` [Q, quercetin], the inhibition at 100 µM at SIRT6 [1] is 30%.

Regarding `Cc1c(-c2ccccc2)oc2c(CC(=O)OCC(=O)c3ccc(O)cc3O)cccc2c1=O` [compound 1, (2,4-dihydroxy-phenyl)–2-oxoethyl 2-(3-methyl-4-oxo-2-phenyl-4H-chromen-8-yl)acetate], the inhibition at 200 µM at SIRT2 turned out to be 53 ± 1.3%. The same molecule came in with an EC50 at SIRT6 [2] of 80 ± 12 µM.

Turning to SIRT6 (Homo sapiens), in data set [3], the Km worked out at 1190 ± 450 µM, the kcat is 0.0022 ± 0.0004 s⁻¹ and the kcat/Km came out at 1.9 M⁻¹ s⁻¹. Take `NC(=O)c1cccnc1` [NAM]: on SIRT6 [4], the inhibition at 200 µM turned out to be 86 ± 13%.
